Source: doi:10.1101/2024.04.15.589676 (bioRxiv, 2024)
Read-outs that look alike come from different tables or passages of the source.

Columns and labels:
SARS-CoV-2 = system: SARS-CoV-2; parameters: species or system human adult lung organoid-derived monolayers; SARS-CoV-2 infectious titre in organoid supernatants, plaque assay; settings: inhibitor; read-out: EC50 SARS-CoV-2, ALO
in vitro = settings: human, adult lung organoid monolayer
[1] = system: Vesicular stomatitis virus rVSV-SARS-CoV-2-S; settings: inhibitor; read-out: EC50 rVSV-SARS-CoV-2-S, Vero
DENV2 = system: DENV2; parameters: DENV2 replication, plaque assay; settings: inhibitor; read-out: EC50 DENV2, Huh7
[2] = system: Venezuelan equine encephalitis virus VEEV (TC-83); settings: inhibitor; read-out: EC50 VEEV (TC-83), U-87 MG
Ebola virus EBOV = settings: 48 h; inhibitor; read-out: EC50 EBOV, Huh7
Marburg virus MARV = settings: 48 h; inhibitor; read-out: EC50 MARV, Huh7
[3] = system: SARS-CoV-2-nluc, WA1/2020; settings: inhibitor; read-out: EC50 SARS-CoV-2-nluc, Calu-3
Huh7 = settings: human, huh7 cells
[4] = system: Vesicular stomatitis virus rVSV-SARS-CoV-2-S; settings: inhibitor; read-out: EC50 rVSV-SARS-CoV-2-S, Vero; remark: listed apart in the source

Row | Structure (SMILES) | EC50 (SARS-CoV-2) [nM] | CC50 (in vitro) [nM] | EC50 [1] [nM] | EC50 (DENV2) [nM] | EC50 [2] [nM] | EC50 (Ebola virus EBOV) [nM] | EC50 (Marburg virus MARV) [nM] | EC50 [3] [nM] | CC50 (Huh7) [nM] | EC50 [4] [nM]
1 | Cc1cccc(/C=N/Nc2cc(N3CCOCC3)nc(OCCc3ccccn3)n2)c1 [Apilimod] | 420 | 9900 | 12 | – | – | – | – | – | – | –
2 | COc1ccc(-c2cnc3c(C#Cc4cccnc4)snc3c2)cc1OC [RMC-113] | – | – | – | 1400 | 1400 | 5000 | 7800 | 1450 | > 10000 | 1800
